Data taken from US9593149B2, “Amylin and calcitonin receptor agonist” (Novo Nordisk A/S, priority 2014, dated 2017).
≈ marks a conversion by molar mass, not a printed value. Numbered stars: 1 amine (or outer) side, 2 acyl side, 3 side chain; on linkers, the order of the positions; unused ones are H or OH. Peptide text beside a SMILES is read from it. * marks the point of attachment. C18 diacid = O=C(O)CCCCCCCCCCCCCCCCC(=O)*; γGlu = O=C(O)[C@H](CCC(=O)[*:2])N[*:1]; C14 diacid = O=C(O)CCCCCCCCCCCCC(=O)*; AEEA = NCCOCCOCC(=O)O

Experiments:
[1] = target: T1, human calcitonin (a) receptor, BHK570 cells (Homo sapiens, UniProt P30988); experiment: Assay (II)a functional CRE-luciferase assay with albumin, human calcitonin receptor; format: cell-based; conditions: Tested with HSA; read-out: hCTR funct. EC50
T1 construct: host or cells: BHK570
T1 sequence (P30988 25-474): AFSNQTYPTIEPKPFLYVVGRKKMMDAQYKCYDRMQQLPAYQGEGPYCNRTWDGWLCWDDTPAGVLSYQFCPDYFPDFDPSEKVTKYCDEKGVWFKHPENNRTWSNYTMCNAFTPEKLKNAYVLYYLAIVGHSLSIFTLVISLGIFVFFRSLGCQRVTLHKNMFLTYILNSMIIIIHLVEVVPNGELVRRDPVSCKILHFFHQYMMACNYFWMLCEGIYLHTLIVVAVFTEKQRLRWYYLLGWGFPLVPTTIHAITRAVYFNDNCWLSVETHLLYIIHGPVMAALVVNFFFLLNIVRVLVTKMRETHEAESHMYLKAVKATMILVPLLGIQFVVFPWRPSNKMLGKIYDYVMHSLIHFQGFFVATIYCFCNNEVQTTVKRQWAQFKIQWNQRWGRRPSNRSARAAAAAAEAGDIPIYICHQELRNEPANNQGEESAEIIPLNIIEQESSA
Description: Assay(II)a—Human Calcitonin and Amylin Receptor Assay
(§1) 1. Luciferase Assay Outline
(§2) Activation of calcitonin and amylin (co-expression of calcitonin receptor and receptor activity modifying proteins (RAMP)) receptors lead to increased intracellular concentrations of cAMP. Consequently, transcription is activated by promoters containing multiple copies of the cAMP response element (CRE). It is thus possible to measure amylin activity by the use of a CRE luciferase reporter gene introduced into BHK cells also expressing calcitonin or amylin receptors.
(§3) 2. Construction of Calcitonin (a)—and Amylin 3(a)—Receptor/CRE-Luc Cell Line.
A BHK570 cell line was stably transfected with the human calcitonin receptor and a CRE-responsive luciferase reporter gene. The cell line was further transfected with RAMP-3, using standard methods. This turns the calcitonin receptor into an amylin 3(a) receptor. Methotrexate, Neomycin, and Hygromycin are selection markers for luciferase, the calcitonin receptor, and RAMP-3, respectively.
To perform activity assays, BHK calcitonin (a) receptor- or amylin 3(a)-receptor/CRE-luc cells were seeded in white 96 well culture plates at a density of about 20.000 cells/well. […] After incubation overnight at 37° C. and 5% CO2, the growth medium was replaced by 50 μl/well assay medium (DMEM (without phenol red), Glutamax™, 10% FBS, and 10 mM Hepes, pH 7.4). Further, 50 μl/well of standard or sample in assay buffer were added.
After 3 hours incubation at 37° C. and 5% CO2, the assay medium with standard or sample were removed and replaced by 100 μl/well PBS. Further, 100 μl/well LucLite™ was added. The plates were sealed and incubated at room temperature for 30 minutes. Finally, luminescence was tested on a TopCounter (Packard) in SPC (single photon counting) mode.

[2] = target: T2, human amylin 3(a) receptor (human calcitonin receptor + RAMP-3), BHK570 cells (Homo sapiens, UniProt O60896+P30988); experiment: Assay (II)b functional CRE-luciferase assay without albumin, human amylin receptor; format: cell-based; conditions: Tested without HSA; read-out: hAmylin-R funct. EC50
T2 construct: host or cells: BHK570
Description: (§4) Assay(II)b—Human Calcitonin and Amylin Receptor Assay without Albumin
as §1, §2, §3
(§5) A BHK570 cell line was stably transfected with the human calcitonin receptor and a CRE-responsive luciferase reporter gene (Hollex-1 cell line, obtained from ZymoGenetics described in U.S. Pat. No. 5,622,839). The cell line was further transfected with RAMP-3, using standard methods. This turns the calcitonin receptor into an amylin 3(a) receptor. Methotrexate, Neomycin, and Hygromycin are selection markers for luciferase, the calcitonin receptor, and RAMP-3, respectively. To prepare the batches of frozen cells used in the luciferase assay described in the section below, the cells were cultured in growth medium (DMEM with 10% FBS, 1% Pen/Strep and 1 mM Napyruvate). […] Cells at approximately 80-90% confluence were washed with PBS and loosened from the plates with Versene. After centrifugation (2 min, 1300 rpm, in a Centrion Scientific centriuge C2 series with a BRK 5510 rotor head), the cell pellet was dissolved in 10% DMSO, 30% FBS and 60% growth medium and frozen (−80° C.) until utilization.
(§6) The day before the experiment, BHK calcitonin (a) receptor- or amylin 3(a)-receptor/CRE-luc cells were thawed, washed twice, and seeded in 40 μl growth medium on white 384 well culture plates (4.000 cells/well). On the assay day, the cells were washed 3 times in assay media (Dulbecco media W/o phenol red, 500 ml (Gibco, 11880-028); 0.1% ovalbumin; 10 mM Hepes pH 7.4; 1× Glutamin; 1% Pen/Strep). Then, 30 μl/well of sample diluted in assay buffer was added. After 3 hours of incubation at 37° C. and 5% CO2, the reaction was terminated by adding 30 μl/well SteadyLite Plus™. The plates were shaken at 300 rpm for 5 min at RT. Then, the plates were sealed and incubated at room temperature for 30 minutes. Finally, luminescence was tested on a TopCounter (Packard) in SPC (single photon counting) mode.
(§7) Additional Comment Regarding Use of Data Retrieved Via this Method
(§8) For the same reasons, measurements made in Assay IIa should not be compared in Assay IIb.

[3] = target: T1, human calcitonin (a) receptor, BHK570 cells; experiment: Assay (II)b functional CRE-luciferase assay without albumin, human calcitonin receptor; format: cell-based; conditions: Tested without HSA; read-out: hCTR funct. EC50
Description: as §4, §1, §2, §3, §5, §6, §7, §8

[4] = Assay (IV) determination of solubility; format: physicochemical
Experimental: Assay (IV)—Determination of Solubility
The mimylin peptide was dissolved in water at ˜500 nmol/ml and mixed 1:1 with a series of buffers (100 mM glycylglycine pH 3.0, 100 mM glycylglycine pH 4.0, 100 mM glycylglycine pH 5.0, 100 mM bistrispropane pH 6.0, 100 mM bistrispropane pH 6.5, 100 mM bistrispropane pH 7.0, 100 mM bistrispropane pH 7.5, 100 mM bistrispropane pH 8.0).

[5] = target: T3, human amylin receptor (human calcitonin receptor + human RAMP3), BHK tk'ts 13 cells (Homo sapiens, UniProt O60896+P30988); experiment: Assay (Va) binding to the human amylin receptor (whole cell); conditions: read-out: hAmylin-R binding IC50
T3 construct: expressed in transfected cells; host or cells: BHK tk'ts 13
Experimental: The day before the assay the cells were Seeded into Poly-D-Lysin coated 384W Opaque White, BD BioCoat plates (10000 cells/well) and Incubated overnight at 37° C., 5% CO2, 95% humidity.

[6] = Assay (X) pK, T½ in rat; format: in vivo, Sprague Dawley rats
Experimental: Assay (X)—pK—Determination of T½ in Rat
Pharmacokinetic (PK) studies rats were conducted in order to determine the T½ of mimylin peptide after i.v. and s.c. administration.
T½ values of the mimylin derivates of the invention is determined by pharmacokinetic studies in Sprague Dawley male rats, from Taconic Europe and the principles of laboratory animal care are followed.
An acclimatisation period of approximately 7 days was allowed before the animals entered the study. At start of the acclimatisation period the rats were in the weight range of 250-400 g.
The studies were conducted in an animal room which was illuminated to give a cycle of approximately 12 hours light and 12 hours darkness. The animals were group housed and had food and water ad lib. The animals were weighed on the days of dosing.
In the present studies the test substances were administered subcutaneously or intravenously in approximately 20 nmol/kg dose. The animals received a single subcutaneous injection to the neck for subtaneous administration or directly into the tail vein for intravenous administration. Each test substance was given to typically three but in some cases two or four animals.
A full plasma concentration-time profile, employing 8-10 sampling points, was obtained from each animal. In example blood samples were collected according to the following schedule: After subcutaneous or intravenous administration:
At each sampling time, 0.08 to 0.10 ml of blood was drawn from each animal. The blood samples were taken in the sublingual vein via venous puncture and the use of a capillary tube.
The blood samples were stabilised with EDTA. Blood samples were kept on ice for max 20 min. before centrifugation. Plasma was separated using centrifugation (i.e. at 4° C., 10 min., 1500G) and was immediately transferred to Micronic tubes or PCR plates. Approximately 40 μl plasma was transferred and was stored at −20° C. until assayed. The plasma samples were assayed for the content of mimylin compound by LCMS
The plasma concentration-time profiles were analysed by a non-compartmental pharmacokinetic analysis (NCA) using Phoenix WinNonlin 6.3 (Pharsight Inc., Mountain View, Calif., USA). NCA was performed using the individual plasma concentration-time profiles from each animal. T½ is the terminal half-life=In2/λz and was determined from λz, the first order rate constant associated with the terminal (log-linear) portion of the curve, estimated by linear regression of time vs. log concentration.

T3 sequence (O60896 24-148, one chain of several): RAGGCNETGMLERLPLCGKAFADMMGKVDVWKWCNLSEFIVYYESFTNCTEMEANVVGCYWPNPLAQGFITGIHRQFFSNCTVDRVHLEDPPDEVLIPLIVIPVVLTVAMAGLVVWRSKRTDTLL
T2 sequence (O60896 24-148, one chain of several): as above

## CC(C)C[C@H](NC(=O)[C@H](CCCNC(=N)N)NC(=O)CNC(=O)[C@@H](NC(=O)[C@@H](NC(=O)[C@H](C)NC(=O)[C@@H](NC(=O)[C@H](CO)NC(=O)[C@@H](NC(=O)[C@H](CCC(=O)O)NC(=O)[C@H](CO)NC(=O)[C@H](C)NC(=O)CC[C@H](NC(=O)CCCCCCCCCCCCCCCCC(=O)O)C(=O)O)C(C)C)[C@@H](C)O)C(C)C)C(C)C)C(=O)N[C@@H](CO)C(=O)N[C@@H](C)C(=O)N[C@@H](CCC(=O)O)C(=O)N[C@@H](CC(C)C)C(=O)N[C@@H](Cc1c[nH]cn1)C(=O)N[C@@H](CCC(=O)O)C(=O)N[C@H](C(=O)N[C@@H](C)C(=O)N[C@H](C(=O)N[C@@H](CC(C)C)C(=O)N1CCC[C@H]1C(=O)N[C@@H](CCCNC(=N)N)C(=O)N[C@H](C(=O)N[C@@H](CCC(=O)O)C(=O)N[C@H](C(=O)NCC(=O)N[C@@H](CO)C(=O)NCC(=O)N[C@@H](CO)C(=O)N1CCC[C@H]1C(N)=O)[C@@H](C)O)[C@@H](C)O)[C@@H](C)O)C(C)C [compound 102, [N-terminal(C18 diacid-gGlu), des1, 5V, 9V, 10V, 20V, 30S, 31G]mimylin] ({C18 diacid-γGlu}-ASEVSTAVVGRLSAELHEVATLPRTETGSGSP-NH2)
[1]
  EC50: 0.028 nM
[2]
  EC50: 0.012 nM
[3]
  EC50: 6 pM
[4]; bistrispropane buffer, pH 6.5
  solubility at 18 h: ≥ 200 µM
[4]; bistrispropane buffer, pH 7.5
  solubility at 18 h: ≥ 200 µM
[4]; bistrispropane buffer, pH 6.0
  solubility at 18 h: ≥ 200 µM
[4]; bistrispropane buffer, pH 7.0
  solubility at 18 h: ≥ 200 µM
[4]; bistrispropane buffer, pH 8.0
  solubility at 18 h: ≥ 200 µM
[4]; glycylglycine buffer, pH 3.0
  solubility at 18 h: 6 µM (≈ 21.8 µg/mL)
[4]; glycylglycine buffer, pH 5.0
  solubility at 18 h: ≥ 200 µM
[5]
  IC50: 1.65 nM

## CC(C)C[C@H](NC(=O)[C@H](CCCCN)NC(=O)CNC(=O)[C@H](CC(C)C)NC(=O)[C@@H](NC(=O)[C@@H]1CSSC[C@H](N)C(=O)N[C@@H](CO)C(=O)N[C@@H](CC(N)=O)C(=O)N[C@@H](CC(C)C)C(=O)N[C@@H](CO)C(=O)N[C@@H]([C@@H](C)O)C(=O)N1)C(C)C)C(=O)N[C@@H](CO)C(=O)N[C@@H](CCC(N)=O)C(=O)N[C@@H](CCC(=O)O)C(=O)N[C@@H](CC(C)C)C(=O)N[C@@H](Cc1c[nH]cn1)C(=O)N[C@@H](CCCCN)C(=O)N[C@@H](CC(C)C)C(=O)N[C@@H](CCC(N)=O)C(=O)N[C@H](C(=O)N[C@@H](Cc1ccc(O)cc1)C(=O)N1CCC[C@H]1C(=O)N[C@@H](CCCNC(=N)N)C(=O)N[C@H](C(=O)N[C@@H](CC(N)=O)C(=O)N[C@H](C(=O)NCC(=O)N[C@@H](CO)C(=O)NCC(=O)N[C@H](C(=O)N1CCC[C@H]1C(N)=O)[C@@H](C)O)[C@@H](C)O)[C@@H](C)O)[C@@H](C)O [Salmon calcitonin, reference compound]
[6]; male, Sprague Dawley, plasma, sc, 20 nmol/kg
  half-life: 60 min

## CC(C)C[C@H](NC(=O)[C@H](C)NC(=O)[C@H](C)NC(=O)[C@@H](NC(=O)[C@H](CO)NC(=O)[C@H](CC(C)C)NC(=O)[C@H](CCC(=O)O)NC(=O)[C@H](CO)NC(=O)[C@H](C)NC(=O)[C@H](CCC(=O)O)NC(=O)COCCOCCNC(=O)COCCOCCNC(=O)COCCOCCNC(=O)COCCOCCNC(=O)CC[C@H](NC(=O)CC[C@H](NC(=O)CCCCCCCCCCCCC(=O)O)C(=O)O)C(=O)O)[C@@H](C)O)C(=O)NCC(=O)N[C@@H](CCCNC(=N)N)C(=O)N[C@@H](CC(C)C)C(=O)N[C@@H](CO)C(=O)N[C@@H](C)C(=O)N[C@@H](CCC(=O)O)C(=O)N[C@@H](CC(C)C)C(=O)N[C@@H](Cc1cnc[nH]1)C(=O)N[C@@H](CCC(=O)O)C(=O)N[C@@H](CC(C)C)C(=O)N[C@@H](C)C(=O)N[C@H](C(=O)N[C@@H](CC(C)C)C(=O)N1CCC[C@H]1C(=O)N[C@@H](CCCNC(=N)N)C(=O)N[C@H](C(=O)N[C@@H](CCC(=O)O)C(=O)N[C@H](C(=O)NCC(=O)N1CCC[C@H]1C(=O)N[C@@H](CCC(=O)O)C(=O)N[C@@H](CO)C(=O)N1CCC[C@H]1C(N)=O)[C@@H](C)O)[C@@H](C)O)[C@@H](C)O [compound 5, [N-terminal(C14 diacid-2xgGlu-4xOEG)]mimylin] ({C14 diacid-γGlu-γGlu-AEEA-AEEA-AEEA-AEEA}-EASELSTAALGRLSAELHELATLPRTETGPESP-NH2)
[4]; pH 3.0
  Solubility: ≧200 μM
[4]; pH 4.0
  Solubility: ≧200 μM
[4]; pH 5.0
  Solubility: ≧200 μM
[4]; pH 6.0
  Solubility: ≧200 μM
[4]; pH 6.5
  Solubility: ≧200 μM
[4]; pH 7.0
  Solubility: ≧200 μM
[4]; pH 7.5
  Solubility: ≧200 μM
[4]; pH 8.0
  Solubility: ≧200 μM
[6]; i.v.
  PK rat iv T½: 6 h
[6]; s.c.
  PK rat sc T½: 13 h
